Source: patent US9249155B2, “Thieno [2, 3-D] pyrimidine derivatives and their use to treat arrhythmia” (XENTION LIMITED, priority 2011, dated 2016)

Legend:
hKv1.5 = target: T1, hKv1.5 (Homo sapiens, UniProt P22460); assay: Kv1.5 electrophysiology, whole cell patch clamp; assay type: cell-based; settings: CHO stably transfected with hKv1.5, whole cell patch clamp, room temperature
T1 construct: expressed in transfected cells; host or cells: CHO
Protocol: The ability of the compounds of the invention to inhibit the Kv1.5 potassium channel was measured in an electrophysiology experiment, using recombinant cells expressing the channel of interest in a whole cell patch clamp experiment.
The external bathing solution contained (in mM): 150 NaCl, 10 KCl, 3 MgCl2, 1 CaCl2, HEPES, pH 7.4. Patch pipettes were filled with an electrode solution of composition (in mM): 160 KCl, 0.5 MgCl2, 10 HEPES, 1 EGTA, pH 7.2 with KOH.
Compounds were dissolved in DMSO (100%) and freshly made up in the external bather at the desired concentration (final DMSO concentration=0.1%). All experiments were conducted at room temperature.
For whole-cell patch-clamp studies cells (CHO stably transfected with hKv1.5) were seeded onto glass coverslips before recordings were made. Cells were seeded in sterile 30 mm Petri dishes at a density to enable isolated cells to be selected for patch clamp experiments. The dishes were stored in a humidified, gassed (5% CO2) incubator at 37° C. until use.
Whole-cell patch-clamp recordings of membrane currents were made following gigaohm seal formation between the patch electrode and the cell using HEKA EPC-9/10 amplifiers controlled by Pulse Software (Ver8.5x/8.6x, HEKA, Germany). Coverslips seeded with cells were placed in a recording chamber mounted on the stage of an inverted microscope. During the experiment the cell of interest was continuously superfused with bather solution delivered via a cannula placed in close proximity to the cell to enable control of the extracellular solution environment. Only those cells with a current>500 pA were used for experiments. […]
Electrophysiology voltage-step protocols and analysis of data was performed as follows. […] Mean currents during 75-95% of the depolarising step to 0 mV were analysed using Pulsefit software (v8.x, HEKA, Germany). […] The test substance was allowed to equilibrate during which time voltage protocol was repeatedly applied and recorded. Percentage inhibition of the current in the presence of test substance was calculated relative to the control pre-drug value.

T1 sequence (P22460 whole entry): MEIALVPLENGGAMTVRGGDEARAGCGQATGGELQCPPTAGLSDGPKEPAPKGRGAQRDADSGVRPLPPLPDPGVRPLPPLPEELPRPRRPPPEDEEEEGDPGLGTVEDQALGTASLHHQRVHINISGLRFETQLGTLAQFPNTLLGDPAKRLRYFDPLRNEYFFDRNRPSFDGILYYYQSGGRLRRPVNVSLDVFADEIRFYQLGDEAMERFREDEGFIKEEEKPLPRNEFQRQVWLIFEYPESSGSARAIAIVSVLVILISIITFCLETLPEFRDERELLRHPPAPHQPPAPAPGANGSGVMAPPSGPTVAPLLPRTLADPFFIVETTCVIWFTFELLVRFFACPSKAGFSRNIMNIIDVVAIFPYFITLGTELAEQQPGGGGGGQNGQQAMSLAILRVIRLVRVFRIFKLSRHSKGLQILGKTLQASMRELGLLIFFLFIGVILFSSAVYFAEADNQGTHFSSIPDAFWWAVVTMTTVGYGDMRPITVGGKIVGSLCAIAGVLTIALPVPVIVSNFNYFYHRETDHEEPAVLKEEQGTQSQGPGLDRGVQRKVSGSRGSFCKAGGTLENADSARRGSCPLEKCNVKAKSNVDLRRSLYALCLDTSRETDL

SMILES	melting point	IC50 (hKv1.5)
O=C(NCCO)C1CCCN(c2nc(NCc3ccccn3)c3c(-c4ccccc4)csc3n2)C1 (racemic) [Racemate, 1-{5-Phenyl-4-[(pyridin-2-ylmethyl)-amino]-thieno[2,3-d]pyrimidin-2-yl}-piperidine-3carboxylic acid (2-hydroxy-ethyl)-amide]	190 to 194 °C	9 nM
O=C(NCCO)[C@@H]1CCCN(c2nc(NCc3ccccn3)c3c(-c4ccccc4)csc3n2)C1 [(R) enantiomer (Ic), (R)-1-{5-Phenyl-4-[(pyridin-2-ylmethyl)-amino]-thieno[2,3-d]pyrimidin-2-yl}-piperidine-3-carboxylic acid (2-hydroxy-ethyl)-amide]	71 to 76 °C	5 nM
O=C(NCCO)[C@H]1CCCN(c2nc(NCc3ccccn3)c3c(-c4ccccc4)csc3n2)C1 [(S) enantiomer (Ib), (S)-1-{5-Phenyl-4-[(pyridin-2-ylmethyl)-amino]-thieno[2,3-d]pyrimidin-2-yl}-piperidine-3-carboxylic acid (2-hydroxy-ethyl)-amide]	61 to 65 °C	27 nM
